For 4 compounds, Binding affinity results are on record in ChEMBL document CHEMBL1122962, “Molecular interactions of toxic chlorinated dibenzo-p-dioxins and dibenzofurans with thyroxine binding prealbumin” (J Med Chem, 1985).

This assay addresses Transthyretin (Homo sapiens) (UniProt P02766). Put plainly: Relative binding affinity against prealbumin in competition binding assay and expressed as relative to L-T4 (100).

In the case of `O=C(O)CCCCC(=O)Nc1cc(Cl)cc2c1Oc1cc(Cl)c(Cl)cc1O2`, the Binding affinity was determined as 15. With `N[C@@H](Cc1cc(I)c(Oc2cc(I)c(O)c(I)c2)c(I)c1)C(=O)O`, the Binding affinity was determined as 100. `Oc1c(I)cc(I)cc1I` registered a Binding affinity of 384.

As to `O=C(O)CCCCC(=O)Nc1cc(Cl)cc2c1oc1cc(Cl)c(Cl)cc12`, the Binding affinity is 0.32.
